This is an account of results in patent US10301294B2, “Compounds for the treatment of tuberculosis” (priority 2013, dated 2019).

Common to all, as to format: cell-based
Data set [1] is described as follows: Cytotoxicity against HepG2. Conditions: human, HepG2 cells, 26.0 uM highest concentration measured.
Data set [2] relates to carbon-starved M. tuberculosis H37Rv. The experiment in a line: Non-replicating IC90 determination by luciferase (carbon-starved cells). As to conditions: luciferase; for IC90 / IC99: Mycobacterium tuberculosis, H37RV; for IC90: non-replicating carbon-starved Mtb, three independent experiments in triplicate, read-out: TB Growth Inhibition Activity, IC90 Non-replicating_luciferase; for IC99: 120 h, read-out: Against carbon starved non-replicating Mtb IC99 (uM, luciferase); for IC99 / Against carbon starved non-replicating Mtb IC99 (uM, luciferase): None = inhibition did not reach 99%.

The nature of data set [3]: Cytotoxicity against HeLa. Conditions: human, HeLa cells, 26.0 uM highest concentration measured.
Data set [4] is described as follows: Cytotoxicity against Hek 293. As to conditions: human, HEK293 cells, 26.0 uM highest concentration measured.
In data set [5] the test system is replicating M. tuberculosis H37Rv. Put plainly: microbe, parasite or virus in culture. Conditions: Mycobacterium tuberculosis, H37RV, None = inhibition did not reach 90%, read-out: Against Replicating Mtb IC90 (uM, GFP).

Bounds are passed on as bounds.

One may read the IC50 as the midpoint of a concentration-inhibition curve. Read a high IC50 as weaker potency in that assay. In general, IC90 refers to the point of the concentration-response curve where the effect stands at 90%. As for `c1ccc(-c2nnc(SCCN3CCOCC3)o2)cc1`, the 50% inhibitory concentration (IC50) in data set [1], in data set [3] and in data set [4] was greater than 26 µM throughout. Further, in data set [2], the concentration for an effect of 90% (IC90) was determined as 250 µM.
For the molecule `FC(F)(F)Oc1ccc(CSc2nnc(-c3ccccc3)o2)cc1`, the IC50 in data set [1], in data set [3] and in data set [4] was greater than 26 µM throughout. Further, in data set [2], the IC90 amounted to 1 µM.
On to `COc1cccc(CSc2nnc(-c3ccccc3)o2)c1`, for which the half-maximal inhibitory concentration (IC50) in data set [1], in data set [3] and in data set [4] was greater than 26 µM in each case. The 90% effect concentration (IC90) in data set [2] stood at 1 µM.
For the molecule `COc1ccc(-c2nnc(SCc3ccccc3)o2)cc1`, the IC50 in data set [1], in data set [3] and in data set [4] was greater than 26 µM each time. For the same molecule, the IC90 in data set [2] amounted to 31 µM.
As to `FC(F)(F)CNCCSc1nnc(-c2ccccc2)o1`, the half-inhibitory concentration (IC50) in data set [1], in data set [3] and in data set [4] was greater than 26 µM in each case. Moreover, the IC90 in data set [2] stood at 250 µM.
Regarding `CS(=O)(=O)c1cccc(-c2nnc(SCc3ccccc3)o2)c1`, the IC50 in data set [1], in data set [3] and in data set [4] was greater than 26 µM throughout. In data set [2], the IC90 came out at 125 µM.
Regarding `c1ccc(CSc2nnc(-c3ccc(-c4ccccc4)cc3)o2)cc1`, the IC50 in data set [1], in data set [3] and in data set [4] was greater than 26 µM in each case.
On to `FC(F)(F)c1ccc(CSc2nnc(-c3ccccc3)o2)cc1`, for which the IC50 in data set [1], in data set [3] and in data set [4] was greater than 26 µM each time. The IC90 in data set [2] was found to be 1 µM.
Regarding `FC(F)(F)c1cccc(-c2nnc(SCc3ccccc3)o2)c1`, the concentration for half-maximal inhibition (IC50) in data set [1], in data set [3] and in data set [4] was greater than 26 µM in each case. Moreover, the IC90 in data set [2] came out at 31 µM.
Consider `N#Cc1ccc(CSc2nnc(-c3ccccc3)o2)cc1`, for which the IC50 in data set [1], in data set [3] and in data set [4] was greater than 26 µM throughout. The IC90 in data set [2] stood at 2 µM.
With `Clc1ccc(CSc2nnc(-c3ccccc3)o2)cc1`, the concentration for half-maximal inhibition (IC50) in data set [1], in data set [3] and in data set [4] was greater than 26 µM throughout. The IC90 in data set [2] is 1 µM.
Regarding `N#Cc1ccccc1CSc1nnc(-c2ccccc2)o1`, the 50% inhibitory concentration (IC50) in data set [1], in data set [3] and in data set [4] was greater than 26 µM in each case. Besides, the concentration for an effect of 90% (IC90) in data set [2] amounted to 4 µM.
As to `N#Cc1cccc(-c2nnc(SCc3ccccc3)o2)c1`, the IC50 in data set [1], in data set [3] and in data set [4] was greater than 26 µM throughout. The concentration for an effect of 90% (IC90) in data set [2] came out at 8 µM.
With `FC(F)(F)Oc1cccc(CSc2nnc(-c3ccccc3)o2)c1`, the IC50 in data set [1], in data set [3] and in data set [4] was greater than 26 µM each time. Besides, in data set [2], the IC90 came out at 2 µM.
With `c1ccc(CSc2ncc(-c3ccccc3)o2)cc1`, the IC50 in data set [1], in data set [3] and in data set [4] was greater than 26 µM throughout. For the same molecule, the IC90 in data set [2] is 62 µM.
Regarding `Fc1ccc(CSc2nnc(-c3ccccc3)o2)cc1` [drawing 136], the half-maximal inhibitory concentration (IC50) in data set [1], in data set [3] and in data set [4] was greater than 26 µM throughout. Moreover, in data set [2], the IC90 amounted to 1 µM.
Regarding `c1ccc(-c2ccc(CSc3nnc(-c4ccccc4)o3)cc2)cc1`, the IC50 in data set [1], in data set [3] and in data set [4] was greater than 26 µM throughout. For the same molecule, the concentration for an effect of 90% (IC90) in data set [2] worked out at 8 µM.
As to `FC(F)(F)Oc1ccc(-c2nnc(SCc3ccccc3)o2)cc1`, the IC50 in data set [1], in data set [3] and in data set [4] was greater than 26 µM throughout. Moreover, the IC90 in data set [2] was 2 µM.
For the molecule `c1ccc(COc2nnc(-c3ccccc3)o2)cc1`, the IC50 in data set [1], in data set [3] and in data set [4] was greater than 26 µM each time. Also, the IC90 in data set [2] came out at 8 µM.
For `Cc1cccc(-c2nnc(SCc3ccccc3)o2)c1`, the IC50 in data set [1], in data set [3] and in data set [4] was greater than 26 µM each time. In data set [2], the IC90 was determined as 8 µM.
With `CS(=O)(=O)c1ccc(-c2nnc(SCc3ccccc3)o2)cc1`, the half-maximal inhibitory concentration (IC50) in data set [1], in data set [3] and in data set [4] was greater than 26 µM throughout.
The term IC99 denotes the point of the concentration-response curve where the effect stands at 99%. As to `COCCS(=O)(=O)c1nnc(-c2ccc(C)cc2)o1`, the IC90 in data set [5] was determined as 31 µM. The IC99 in data set [2] came to 8 µM.
For `COCCNc1nnc(-c2ccc(Cl)cc2)o1`, in data set [5], the IC90 is greater than 500 µM. Moreover, in data set [2], the “Against carbon starved non-replicating Mtb IC99 (uM, luciferase)” value is given as “None”.
Take `c1ccc(-c2nnc(SCC3CC3)o2)cc1`: the concentration for an effect of 90% (IC90) in data set [5] was determined as 125 µM. The IC99 in data set [2] worked out at 31 µM.
Turning to `COCCOc1nnc(-c2ccc(Cl)cc2)o1`, the 90% effect concentration (IC90) in data set [5] is greater than 500 µM. For the same molecule, in data set [2], the IC99 worked out at 250 µM.
For `COC(=O)CCCOc1ccc(CSc2nnc(-c3ccc(Cl)cc3)o2)nc1` [drawing 233], in that order: 31 µM and 16 µM.
Regarding `CS(=O)(=O)c1ccccc1CSc1nnc(-c2ccccc2)o1`, the half-maximal inhibitory concentration (IC50) in data set [1], in data set [3] and in data set [4] was greater than 26 µM in each case.
`[N-]=[N+]=NCCOCCNC(=O)CCCOc1ccc(CSc2nnc(-c3ccc(F)cc3)o2)nc1`: the concentration for an effect of 90% (IC90) in data set [5] was determined as 125 µM. Moreover, the “Against carbon starved non-replicating Mtb IC99 (uM, luciferase)” value in data set [2] is recorded as “None”.
On to `O=S(=O)(Cc1ccccc1)c1nnc(-c2ccccc2)o1` [drawing 214], for which, in data set [5], the 90% effect concentration (IC90) amounted to 125 µM. The IC99 in data set [2] came out at 16 µM.
The like results for `CCCCCCCCCCCCSc1nnc(-c2ccccc2)o1` were, in that order, 125 µM and 62 µM.
The like results for `COc1cccc(-c2nnc(SCc3ccccn3)o2)c1` [drawing 227] were, in that order, 62 µM and 16 µM.
For `[N-]=[N+]=NCCOCCNC(=O)c1ccc(C[S+]([O-])c2nnc(-c3ccc(Cl)cc3)o2)nc1` (stereo not shown), in that order: 250 µM and 62 µM.
On to `Fc1ccc(CSc2nnc(-c3ccncc3)o2)cc1`, for which the IC90 in data set [5] was greater than 500 µM. In addition, the “Against carbon starved non-replicating Mtb IC99 (uM, luciferase)” value in data set [2] is recorded as “None”.
Take `COCCSc1nnc(-c2ccc(Cl)cc2)o1`: the IC90 in data set [5] turned out to be 50 µM. Besides, in data set [2], the IC99 was 16 µM.
For `CC(C)(C)c1ccc(CSc2nnc(-c3ccc(Cl)cc3)o2)cc1`, in that order: 250 µM and 62 µM.
As to `Brc1cccc(-c2nnc(SCc3ccccn3)o2)c1` [drawing 217], the IC90 in data set [5] was 62 µM. In data set [2], the 99% effect concentration (IC99) is 31 µM.
For `c1ccc(-c2nnc(SCc3ccccn3)o2)cc1` [drawing 177], in that order: 100 µM and 31 µM.
In the case of `c1ccc(-c2nnc(NCc3ccccn3)o2)cc1`, the concentration for an effect of 90% (IC90) in data set [5] is greater than 500 µM. Moreover, in data set [2], the “Against carbon starved non-replicating Mtb IC99 (uM, luciferase)” value is “None”.
`CS(=O)(=O)c1nnc(-c2ccccc2)o1`: the 90% effect concentration (IC90) in data set [5] came out at 250 µM. In data set [2], the IC99 is 62 µM.
For `[N-]=[N+]=NCCOCCNC(=O)CCCOc1ccc(C[S+]([O-])c2nnc(-c3ccc(F)cc3)o2)nc1` (stereo not shown), in that order: 125 µM and 31 µM.
For `C#CCOc1ccc(-c2nnc([S+]([O-])Cc3ccccn3)o2)cc1` (stereo not shown), in that order: 31 µM and 31 µM.
With `O=C(CSc1nnc(-c2ccccc2)o1)c1ccc(Br)cc1`, in data set [5], the IC90 is greater than 500 µM. For the same molecule, in data set [2], the “Against carbon starved non-replicating Mtb IC99 (uM, luciferase)” value is reported as “None”.
Regarding `COc1ccc(-c2nnc(SCc3ccccn3)o2)cc1`, the IC90 in data set [5] is 62 µM. Further, in data set [2], the concentration for an effect of 99% (IC99) was 16 µM.
